Results from US10118954B2, “Apelin analogues” (University of Ulster, priority 2014, dated 2018).

What was measured:
[1] = Degradation of apelin peptides by plasma from fasted normal NIH Swiss mice (rp-HPLC, MALDI-TOF MS); format: in vitro ADME
Procedure, shortened: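 Apelin peptides were incubated with plasma from fasted normal NIH Swiss mice for 4 h, and the reaction was stopped with TFA. Products were separated by C-8 rp-HPLC with detection at 214 nm. Peak fractions were identified by MALDI-TOF MS, giving fragment molecular weights and retention times.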

[2] = tested on: NIH Swiss mice fed a high-fat diet for 150 days; assay: Acute and delayed i.p. glucose tolerance test, blood glucose and plasma insulin; format: in vivo; conditions: acute, Table 4
Procedure, shortened: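 Diet-induced obese-diabetic mice (high-fat diet 150 days, 18 h fasted) received i.p. glucose (18 mmol/kg) alone or with apelin analogues (25 nmol/kg), or analogues given 2, 8 or 16 h beforehand. Tail blood glucose and plasma insulin sampled at 0, 15, 30, 60, 105 min; n=8, mean±SEM.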

[3] = tested on: male NIH Swiss mice; assay: Acute effects of apelin analogues on voluntary food intake; format: in vivo; conditions: 100 nmol/kg i.p., FIG. 37
Experimental: Saline and peptide analogues were administered by intraperitoneal injection and cumulative food intake was monitored at 30, 60, 90 and 120 min after feeding.
Mice were habituated to a daily feeding regime of 3 h/day by progressively reducing the daily feeding period over 3 weeks. This was performed to ensure mice consumed entire daily food intake within 3 h, thereby allowing “peptide” effects to be measured over the known eating period of mice. On days 1 to 7, mice were supplied with food from 10:00 h to 20:00 h, on days 8 to 14, food was presented from 10:00 h to 19:00 h and on days 15 to 21, food was restricted to the 3 h interval from 10:00 h to 13:00 h. This regime was continued throughout the experimental period.
Mice that were habituated to a 3 h daily feeding regime were administered with an i.p. injection of saline (0.9% w/v NaCl) or apelin peptide (1-100 nmol/kg bw) at 10:00 h (n=8). Immediately following injection, food was initially weighed and then presented to the mice and subsequently weighed at 30 min intervals up to 180 min.

[4] = plasma incubation 4 h, fragment identified by MALDI-TOF MS
[5] = peptide 25 nmol/kg i.p. with glucose 18 mmol/kg

With `CSCC[C@H](NC(=O)[C@@H]1CCCN1C(=O)CNC(=O)[C@H](CCCCN)NC(=O)[C@H](Cc1cnc[nH]1)NC(=O)[C@H](CO)NC(=O)[C@H](CC(C)C)NC(=O)[C@H](CCCNC(=N)N)NC(=O)[C@@H]1CCCN1C(=O)[C@H](CCCNC(=N)N)NC(=O)[C@@H](N)CCC(N)=O)C(=O)N1CCC[C@H]1C(=O)N[C@@H](Cc1ccccc1)C(=O)O` [Apelin-13, reference compound] as the compound, how does the remaining at 4 h, 263 µg/mL ([1]; NIH Swiss, pH 7.4, mouse plasma, 37° C., 4 h, mean ± SEM, 2 experiments, read-out: % intact peptide (4 h)) read?
Its remaining at 4 h, 263 µg/mL is 25.4 ± 1.5%.

What about the half-life at 263 µg/mL ([1]; NIH Swiss, pH 7.4, mouse plasma, estimated by linear regression of % intact peptide against time, read-out: Half-life (t1/2) (converted)) of the same compound?
The half-life at 263 µg/mL was 2.1 h.

And the “Rank order of stability” value ([1]; mouse plasma, 1 = most stable)?
The value was 14.

And the “Degradation fragment, Peak 1” value [1, 4]?
The value was “Apelin-13 (1-11)”.

What about the “Degradation fragment, Peak 2” value [1, 4] of the same compound?
The value was “Apelin-13 (1-12)”.

And the “Rank order on basis of anti-hyperglycaemic efficacy” value [2]?
Its value is 6.

And the “Blood glucose as percent of glucose-alone control (lower = stronger glucose lowering)” value [2, 5]?
Its value is 92% ^.

What about the “Insulin secretion, where glucose alone = 100%” value [2, 5] of the same compound?
Its value is 111% ^.

What about the “Reduction of food intake” value ([3]; at 90 min) of the same compound?
Its value is 16.7%.

And the “Persistence of the food intake reduction” value ([3]; over 3 h)?
The value was “not sustainable over 3 h”.
